Measured values reported in PubChem BioAssay (NCI).
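Grown in 96-well plates, cells were treated for 48 hours with each compound at five concentrations. Insufficient inhibition: endpoint recorded as highest concentration tested. The concentration for 50% growth inhibition is given as GI50. TGI is the concentration that stops growth completely.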

Tests used:
Test in all cases: NCI-60 cell line screen, 48 h
HCT-15 colon = tested on: HCT-15 colon
MALME-3M melanoma = tested on: MALME-3M melanoma
A498 renal = tested on: A498 renal
UACC-257 melanoma = tested on: UACC-257 melanoma
SK-MEL-2 melanoma = tested on: SK-MEL-2 melanoma
M14 melanoma = tested on: M14 melanoma
HCT-116 colon = tested on: HCT-116 colon
NCI-H23 lung = tested on: NCI-H23 lung
OVCAR-4 ovarian = tested on: OVCAR-4 ovarian
HS 578T breast = tested on: HS 578T breast

| Compound | TGI (HCT-15 colon) [µM] | TGI (MALME-3M melanoma) [µM] | TGI (A498 renal) [µM] | TGI (UACC-257 melanoma) [µM] | TGI (SK-MEL-2 melanoma) [µM] | TGI (M14 melanoma) [µM] | TGI (HCT-116 colon) [µM] | TGI (NCI-H23 lung) [µM] | TGI (OVCAR-4 ovarian) [µM] | TGI (HS 578T breast) [µM] | GI50 (HCT-15 colon) [µM] | GI50 (MALME-3M melanoma) [µM] | GI50 (SK-MEL-2 melanoma) [µM] | GI50 (M14 melanoma) [µM] | GI50 (HCT-116 colon) [µM] | GI50 (A498 renal) [µM] | GI50 (UACC-257 melanoma) [µM] | GI50 (OVCAR-4 ovarian) [µM] | GI50 (HS 578T breast) [µM] | GI50 (NCI-H23 lung) [µM] |
| --- | --- | --- | --- | --- | --- | --- | --- | --- | --- | --- | --- | --- | --- | --- | --- | --- | --- | --- | --- | --- |
| CCCCCCCCCC/C=C/C=O | > 100 | > 100 | > 100 | > 100 | > 100 | > 100 | > 100 | > 100 |  |  |  |  |  |  |  |  |  |  |  |  |
| CN1CCN(c2ccc3[nH]c(C4=C(O)C(=O)[C@@H]5C(=C4O)N=C(CO)N5C)nc3n2)CC1 | > 100 | > 100 |  | > 100 |  | > 100 | > 100 | > 100 | > 100 | > 100 |  |  |  |  |  |  |  |  |  |  |
| Cc1cc(C)c(NC(=O)/C=C/c2ccccc2)c(C)c1 | > 100 |  |  | > 100 | > 100 | > 100 |  | > 100 | > 100 | > 100 |  |  |  |  |  |  |  |  |  |  |
| C=CC(=O)NCNC(=O)C=C | > 100 | > 100 | > 100 | > 100 | > 100 | > 100 | > 100 | > 100 | > 100 |  |  |  |  |  |  |  |  |  |  |  |
| O=C1/C(=C/c2ccc(Cl)cc2)N=C(c2ccccc2)N1/N=C/c1ccccc1O | > 100 | 18.7 |  | > 100 | 46.3 | 19.1 | 15.2 | > 100 | 19.9 | 92.8 |  |  |  |  |  |  |  |  |  |  |
| CCP(=O)(CC)C(Cl)(Cl)C(O)C(Cl)(Cl)Cl (stereo unspecified) | > 100 |  |  | > 100 | > 100 | > 100 | > 100 | > 100 | > 100 | > 100 |  |  |  |  |  |  |  |  |  |  |
| C#C[C@]1(O)[C@@H](CO)O[C@@H](n2ccc(N)nc2=O)[C@@H]1O | > 100 | 0.925 | 0.54 | 8.03 | 0.617 | 3.06 | > 33.9 | 1.78 | 5.33 | > 40 |  |  |  |  |  |  |  |  |  |  |
| NCCCn1c2c(c3ccc([N+](=O)[O-])cc3c1=O)C(=O)c1cc(F)ccc1-2 | 0.647 | 0.161 |  |  | 1.05 | 0.104 | 0.134 |  |  |  | 0.0595 | 0.0275 | 0.326 | 0.0297 | < 0.0112 |  |  |  |  |  |
| COc1cc(/C=C/C(=O)c2ccc(F)cc2)ccc1OCCCCCOc1cc2c(cc1OC)C(=O)N1CCCC1C=N2 (stereo unspecified) | 1.41 | 0.439 | 0.331 | 1.17 | 1.51 | 0.266 |  | 0.0662 | > 100 | 0.223 | 0.0588 | 0.212 | 0.062 | 0.0491 |  | 0.138 | 0.238 | 0.0265 | 0.0298 | 0.0186 |
| NC(Cc1ccccc1)c1nn[nH]n1 (stereo unspecified) | > 100 | > 100 | > 100 | > 100 | > 100 | > 100 | > 100 | > 100 | > 100 | > 100 |  |  |  |  |  |  |  |  |  |  |
| CC(C)OC(=O)NNc1cccc(Cl)c1 | > 100 | > 100 | > 100 | > 100 | > 100 | > 100 | > 100 | > 100 |  | > 100 |  |  |  |  |  |  |  |  |  |  |
